Assay results reported in PubChem BioAssay (NCI).
Where “and” joins values, the source holds several entries; their conditions need not be identical. Equal values may be shown once.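 1) Cells in 96-well plates. 2) Compound, 48 h, 5 concentrations. 3) Linear interpolation between surrounding doses. 4) Unreached endpoint = highest concentration. At the GI50, growth is halved. TGI marks complete inhibition of growth.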

What was measured:
Assay in all cases: NCI anticancer screen, dose series, 48 h
[1] = tested on: OVCAR-3 ovarian
[2] = tested on: EKVX NSCLC
[3] = tested on: UO-31 renal
[4] = tested on: T-47D breast
[5] = tested on: KM12 colon
[6] = tested on: HS 578T breast
[7] = tested on: CAKI-1 renal
[8] = tested on: NCI-H23 lung
[9] = tested on: OVCAR-5 ovarian
[10] = tested on: HT29 colon

Row | Compound | GI50 [1] | TGI [1] | GI50 [2] | TGI [2] | GI50 [3] | TGI [3] | GI50 [4] | TGI [4] | GI50 [5] | TGI [5] | GI50 [6] | TGI [6] | GI50 [7] | TGI [7] | GI50 [8] | TGI [8] | GI50 [9] | TGI [9] | GI50 [10] | TGI [10]
1 | Cc1ccc(/C=C2/SC(Nc3nc(-c4csc(NC5=NC(=O)/C(=C\c6ccc(C)cc6)S5)n4)cs3)=NC2=O)cc1 | 3.28 µM | 33.9 µM | 14.9 µM | > 50 µM | 17.9 µM | > 50 µM | 35.3 µM | > 50 µM | 3.47 µM | > 50 µM | 21.9 µM | > 50 µM | 11.1 µM | > 50 µM | 12 µM | > 50 µM | 18.9 µM | > 50 µM | 21.1 µM | > 50 µM
2 | Ic1ccccc1-c1ccccc1 | > 100 µM | > 100 µM | > 100 µM | > 100 µM | 74.5 µM | > 100 µM | 70.5 µM | > 100 µM | > 100 µM | > 100 µM | > 100 µM | > 100 µM | > 100 µM | > 100 µM | > 100 µM | > 100 µM | > 100 µM | > 100 µM | > 100 µM | > 100 µM
3 | C=C(CN1C(=O)[C@H]2CCCN2C(=O)c2ccccc21)c1ccc(C(=O)O)cc1 | > 100 µM | > 100 µM | > 100 µM | > 100 µM | > 100 µM | > 100 µM | > 100 µM | > 100 µM | > 100 µM | > 100 µM | > 100 µM | > 100 µM | > 100 µM | > 100 µM | > 100 µM | > 100 µM | > 100 µM | > 100 µM | > 100 µM | > 100 µM
4 | Cc1cc2nc3c4cc(N)ccc4n(CCN(C)C)c3nc2cc1C | 1.39 µM | 6.87 µM | 1.59 µM | 12.5 µM | 0.439 µM | 4.8 µM | 1.71 µM | 12.3 µM | 0.882 µM | 7.11 µM | 2.06 µM | 9.81 µM | 0.462 µM | 6.28 µM | 0.981 µM | 3.73 µM | 0.914 µM | 9.66 µM | 0.478 µM | 6.59 µM
5 | COc1ncc(-c2ccc3nccc(-c4ccnnc4)c3c2)cc1NS(=O)(=O)c1ccc(F)cc1F | 0.00901 µM and < 0.0109 µM | 0.763 µM and 0.376 µM | 0.0138 µM and 0.013 µM | 1.23 µM and 1.73 µM | 0.00213 µM and < 0.01 µM |  |  | 0.00428 µM | 0.033 µM and 0.0302 µM | 1.53 µM and 1.58 µM | 0.00212 µM and < 0.01 µM | 0.0433 µM and 0.023 µM | 0.00521 µM and < 0.01 µM | 0.746 µM and 1.7 µM | 0.029 µM and 0.0174 µM | > 8.67 µM and 6.46 µM | 0.00728 µM and < 0.01 µM | > 10 µM and 2.76 µM | 0.00325 µM and < 0.01 µM | > 10 µM and 4.25 µM
6 | CC(C)(O)CS(=O)(=O)Nc1ccc2c(c1)CCN(C(=O)COc1cccnc1)C2 | > 100 µM | > 100 µM | > 100 µM | > 100 µM | > 100 µM | > 100 µM | > 35.2 µM | > 100 µM | 0.277 µM | > 100 µM | > 100 µM | > 100 µM | > 92.4 µM | > 100 µM | > 100 µM | > 100 µM |  | > 100 µM | 0.743 µM | > 100 µM
7 | COC(=O)C1=C(C(=O)ON)C2C=CC1(C(Cc1ccccc1)Nc1ccccc1)O2 (stereo unspecified) | 1.72 µM | 3.11 µM | 1.75 µM | 3.51 µM | 1.47 µM | 2.8 µM | 1.46 µM | 3.25 µM | 15.1 µM | 30 µM | 25.3 µM | > 100 µM | 1.63 µM | 3.03 µM | 12 µM | 28.1 µM | 3.27 µM | 12.1 µM | 1.79 µM | 3.42 µM
8 | CC(=O)[C@@]1(O)CC[C@H]2[C@@H]3C[C@H](C)C4=CC(=O)CC[C@]4(C)[C@H]3[C@@H](O)C[C@@]21C |  | > 100 µM |  | > 100 µM |  | > 100 µM |  | > 100 µM |  | > 100 µM |  | > 100 µM |  | > 100 µM |  | > 100 µM |  | > 100 µM |  | > 100 µM
9 | O=C(/C=C/c1cccnc1)NCCCCC1CCCN(C(=O)c2ccccc2)C1 (stereo unspecified) | > 47.9 µM | > 100 µM | > 63.1 µM | > 100 µM | > 62.8 µM | > 100 µM | < 0.01 µM | > 100 µM | < 0.0357 µM | > 100 µM | 4.45 µM | > 100 µM | 9 µM | > 100 µM | 30.3 µM | > 100 µM |  | > 100 µM | < 0.01 µM | > 100 µM
10 | O=NNc1ccc(S(=O)(=O)c2ccccc2)cn1 |  | > 100 µM |  | > 100 µM |  | > 100 µM |  | > 100 µM |  | > 100 µM |  | > 100 µM |  | > 100 µM |  | > 100 µM |  | > 100 µM |  | > 100 µM
